Publication PMC6581955, “Rosmarinic acid suppresses Alzheimer’s disease development by reducing amyloid β aggregation by increasing monoamine secretion” (Scientific Reports, 2019)

Columns and labels:
[1] = cited from earlier work; for intestinal permeability: orally ingested polyphenols
Aβ [2] = test system: Aβ; design: method as in PMID 14994335; conditions: screen of five polyphenols; cited from earlier work
Aβ1–42 = target: T1, Aβ1–42 (Homo sapiens, UniProt P05067); test: ThT assay (SensoLyte Thioflavin T β-Amyloid (1–42) Aggregation Kit); format: biochemical; conditions: 100 μM monoamine; for relative ThT fluorescence intensity (Aβ aggregation): 45 μM Aβ1–42, 37 °C; for time at which Aβ aggregation was significantly (p < 0.05) inhibited: 45 μM Aβ1–42, Dunnett's test
T1 construct: Dissolved lyophilized Aβ1–42 (PEPTIDE INSTITUTE, INC., Osaka, Japan); purchased PEPTIDE INSTITUTE, INC., Osaka, Japan
Description: Dissolved lyophilized Aβ1–42 (PEPTIDE INSTITUTE, INC., Osaka, Japan) in 2 mM NaOH produced a peptide concentration of 0.5 mg/mL, which was then subjected to sonication by a bath-type sonicator for 1 min prior to re-lyophilizing the resulting solution. The NaOH-treated Aβ1–42 lyophilizate was dissolved in 500 μL distilled water and sonicated for 1 min. We added 500 μL of 20 mM phosphate buffer and centrifuged the resulting solution for 10 min at 16,000 × g. The supernatant was used as the Aβ1–42 solution. Aggregation of Aβ1–42 was measured using the SensoLyte® Thioflavin T β-Amyloid (1–42) Aggregation Kit (ANASPEC Inc., Fremont, CA.) according to the manufacturer’s protocol. To measure the Aβ1–42 fibril formation in the 96-well black microplates, 10 μL of 2 mM ThT and 5 μL of each monoamine solution (2 mM) were added into each well and mixed with 85 μL Aβ1–42 solution. The final concentration of Aβ1–42 was 45 μM and that of each monoamine concentration was 100 μM. The ThT fluorescence signal was monitored with Ex/Em = 440 nm/484 nm using Varioskan LUX (Thermo Fisher Scientific) at 37 °C at intervals of 5 min and 10 min for 0–125 min and 140–175 min, respectively.
All samples were tested in triplicate, and data were shown as relative fluorescence units by subtracting the fluorescence level of the blank from the actual value.

Aβ [3] = test system: Aβ; design: method as in PMID 15059976, PMID 23913715; conditions: cited from earlier work
[4] = In vivo RA transferability test (HPLC-ECD of plasma and brain); design: species or system C57BL/6 J mice; conditions: C57BL/6 J, mouse, plasma, oral, 0.5 % (fed), mice fed 0.5% RA for 7 weeks, mean ± S.E. (n = 5)
Description: The blood and whole brain were collected under isoflurane anesthesia after 7 weeks of breeding (C and RA group). The blood samples were centrifuged at 1,800 × g at 4 °C for 10 min to obtain EDTA plasma.
Phosphate-buffered saline (PBS) (1 mL/0.1 g of brain tissue) was added to the brain tissue sample and homogenized with a Polytron homogenizer. After that, the samples were centrifuged at 4,000 × g at 4 °C for 40 min to obtain the brain extract supernatant. The plasma and brain extract were processed as follows. In the β-glucuronidase-treated group, 50 μL of plasma or brain extract was suspended in 50 μL of 200 U β-glucuronidase and 0.1 M sodium acetate buffer (pH 5.0). Then the samples were incubated at 37 °C for 45 min. In the non-treated group, 50 μL of plasma or brain extract were suspended in 50 μL of 0.1 M sodium acetate buffer and incubated as above. After incubation, 200 μL of 0.83 M methyl acetate buffer was added to the samples of both groups, the protein was precipitated by vortex stirring for 1 minute, treated with sonication for 1 minute, and centrifuged at 8,500 × g at 4 °C for 5 min. The supernatants were recovered and passed through 0.45 μm filters, and the concentrations of RA and metabolites in the filtrates were measured using an Ultimate 3000 HPLC-ECD (Thermo Fisher scientific, Massachusetts, US). The conditions of chromatography were the same as the previous report.

[5] = test system: brain capillary endothelial cell monolayers; test: BBB permeability in an in vitro BBB model (BBB Kit); format: in vitro ADME; conditions: caffeine positive, Na-F negative control, n = 3
Description: We measured the BBB permeability by using the BBB Kit (PharmaCo-Cell, Nagasaki, Japan) according to the manufacturer’s instructions. CA was used as a positive control, and Na-F as a negative control. The concentration of the assay buffer on the brain parenchyma side was measured by HPLC–ECD as per the in vivo RA transferability test. Na-F was measured with Ex/Em = 485/538 nm using a FlexStarion 3-fluorescence-plate reader (Molecular Devices, CA, USA). The permeability coefficient (Pe: × 10^−6 cm/sec) was calculated as follows using the concentration of the test substance added to the luminal side ([C]Luminal), the concentration of test compound that passed through to the […] every 20 minutes ([C]Abluminal), and the amount on the brain parenchyma side (VAbluminal). Volume(µL)=([C]Abluminal×VAbluminal)/[C]Luminal The amount of permeation was plotted every 20 min and the value of the slope of the formula of the quantity transmitted for each time was used as the permeation index (PS). […] 1/PSendothelial=1/PStotal−1/PSmembrane Pe was calculated by dividing PSendothelial by the insert surface area (A). […]

brain monoamines = test: Monoamine concentration in the whole brain of mice fed RA for 7 weeks (HPLC-ECD); format: in vivo, C57BL/6 J mice; conditions: 0.5% RA diet for 7 weeks vs control
Description: The whole brain was collected under isoflurane anesthesia after 7 weeks of breeding (C and RA group). Buffer (2.0 mM NaHSO3, 20 μM EDTA • 2Na, 0.10 M HClO4; 1 mL/0.1 g of brain tissue) was added to the brain sample, the mixture was then homogenized with a Polytron and centrifuged at 12,000 × g at 4 °C for 5 min to obtain a brain extract supernatant. The supernatants were recovered, passed through 0.45 μm filters, and the concentration of monoamines in the filtrates was measured using HPLC-ECD. The conditions of chromatography were given in Supplemental Methods.

DA in brain sections = test: DA imaging by IMS (MALDI-TOFMS); format: in vivo, C57BL/6 J mice; conditions: 0.5% RA diet for 10 days
Description: Because it has been reported that isoflurane anesthesia increases the release of DA in rat striatum, we adopted decapitation after cervical dislocation without anesthesia to euthanize the mice after 10 days of breeding (C and RA group). The left hemisphere of the brain of each mouse was collected, then sagittal sections 8 μm thick were prepared using a cryostat (CM-3050 S; LEICA, Germany) at −25 °C and mounted on a glass slide coated with indium tin oxide. Sections were sprayed with DPP and incubated at 40 °C for 30 min, and then sprayed with 2,5-dihydroxybenzoic acid to improve ionization efficiency. The surface of the sections was ionized by irradiation with laser light at 200 μm intervals using an Ultrafle Xtreme (matrix-assisted laser desorption/ionization time-of-flight mass spectrometer) (MALDI-TOFMS) (Bruker Daltonik GmbH, Bremen, Germany). The peak of DPP-derivatized DA (m/z: 368.2), which constitutes a complex of the target substance (DA) and DPP, was measured two-dimensionally. Only DA that could be derivatized was measured.

[6] = test system: monoamines in cerebral cortex, striatum, hippocampus; test: Monoamine concentration in brain regions after single dose or 11 days of RA; format: in vivo, mice
Description: In order to examine the effect of a single dose of RA, we conducted intragastric administration of RA at 0.1 m mol/kgBW to wild type mice and measured the monoamine concentration in three brain regions (cerebral cortex, striatum, and hippocampus) after 0, 60, and 240 min. […] Therefore, we extended the RA administration period to 11 days.

[7] = test system: mRNA of DA-metabolizing enzymes, Tieg2, Tgf-β1; test: Relative mRNA measurement in cerebral cortex, SN and VTA by qRT-PCR; format: in vivo, C57BL/6 J mice
Source text: The mice were divided into two groups, C and RA, as mentioned above, and fed with the appropriate diet for 11 days. We collected SN and VTA from the brain according to methods previously described. In brief, we collected the whole brain, washed it with saline, and obtained 1 mm thick coronal sections using a brain slicer BS-Z 2000C (Muromachi Kikai Co., Ltd., Tokyo, Japan). Referring to the Allen Brain Atlas[55], we acquired the SN and VTA from the relevant sections.
Total RNA was extracted from SN, and VTA using TRIzol (Invitrogen) according to the manufacturer’s manual. After checking the quality of total RNA, we synthesized cDNA using PrimeScript^TM RT Master Mix (Perfect Real Time) (TaKaRa Bio, Shiga, Japan). The primer sequences and conditions for our qRT–PCR are given in Suppl. Table S1 and Supplemental Methods. Results are expressed as mean of fold change compared with control condition (SE as error bars, n = 5, 6). All samples were tested in triplicate and the data were normalized to GAPDH (cerebral cortex) or β-actin (SN and VTA).

[8] = Side effects in the animal study; format: in vivo, mice; conditions: RA-fed animals
Aβ [9] = test system: Aβ; design: method as in PMID 19893028; conditions: Tg2576 mice, cited from earlier work
[10] = test system: brain serotonin concentration; design: method as in PMID 23009399; conditions: via inhibition of Maoa; cited from earlier work
striatum DA and NE = test system: striatum DA and NE; design: method as in PMID 25756794; conditions: fed for 20 days; with elevated Th expression in SN; cited from earlier work
[11] = 0.5% RA diet 11 days vs controls, P < 0.05
[12] = RA diet 11 days, normalized to β-actin

T1 sequence (P05067 672-713): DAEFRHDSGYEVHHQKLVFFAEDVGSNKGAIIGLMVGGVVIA

Question: With `COc1cc(/C=C/C(=O)CC(=O)/C=C/c2ccc(O)c(OC)c2)ccc1O` [Cur, curcumin, reference compound] as the compound, how does the intestinal permeability [1] read?
Answer: approximately 0.1%

Question: And the “Aβ aggregation in vitro” value (Aβ [2])?
Answer: significantly inhibited

Question: Which results are given for `NCCc1ccc(O)c(O)c1` [DA, dopamine]?
Answer: relative ThT fluorescence intensity (Aβ aggregation) (Aβ1–42): lower than that in their absence; time at which Aβ aggregation was significantly (p < 0.05) inhibited (Aβ1–42): 15 to 160 min; Aβ aggregation (Aβ [3]): inhibit

Question: Which “relative ThT fluorescence intensity (Aβ aggregation)” value (“relative ThT fluorescence intensity” for short) (Aβ1–42) does the source give for `O=C(O)Cc1ccc(O)c(O)c1` [DOPAC, 3,4-dihydroxyphenylacetic acid] here?
Answer: lower than that in their absence

Question: Which “Aβ aggregation in vitro” value (Aβ [2]) does the source give for `COc1cc(/C=C/C(=O)O)ccc1O` [FA, ferulic acid] here?
Answer: significantly inhibited

Question: Which “relative ThT fluorescence intensity” value (Aβ1–42) does the source give for `N[C@@H](Cc1ccc(O)c(O)c1)C(=O)O` [L-DOPA, levodopa] here?
Answer: lower than that in their absence

Question: And the “time at which Aβ aggregation was significantly (p < 0.05) inhibited” value (Aβ1–42)?
Answer: 20 to 160 min

Question: And the Aβ aggregation (Aβ [3])?
Answer: inhibit

Question: With `NC[C@H](O)c1ccc(O)c(O)c1` [NE, norepinephrine] as the compound, how does the “relative ThT fluorescence intensity” value (Aβ1–42) read?
Answer: lower than that in their absence

Question: And the “time at which Aβ aggregation was significantly (p < 0.05) inhibited” value (Aβ1–42)?
Answer: 20 to 160 min

Question: With `O=C(/C=C/c1ccc(O)c(O)c1)O[C@H](Cc1ccc(O)c(O)c1)C(=O)O` [RA, rosmarinic acid] as the compound, how does the concentration at 7 weeks ([4]; β-glucuronidase not reacted) read?
Answer: 590 ± 220 nM

Question: What about the concentration at 7 weeks ([4]; β-glucuronidase reacted) of the same compound?
Answer: 750 ± 150 nM

Question: What about the “transendothelial permeability (Pe)” value [5] of the same compound?
Answer: lowest value

Question: And the “DA concentration in whole brain” value (brain monoamines)?
Answer: changed but not significantly

Question: And the “DOPAC concentration in whole brain” value (brain monoamines)?
Answer: significantly increased

Question: What about the “L-DOPA concentration in whole brain” value (brain monoamines) of the same compound?
Answer: significantly increased

Question: And the “NE concentration in whole brain” value (brain monoamines)?
Answer: changed but not significantly

Question: What about the “DPP-derivatized DA signals in cerebral cortex and striatum” value (DA in brain sections) of the same compound?
Answer: more strongly than in control group

Question: What about the “DOPAC level in cerebral cortex” value [6, 11] of the same compound?
Answer: increased significantly

Question: What about the “L-DOPA level in cerebral cortex” value [6, 11] of the same compound?
Answer: increased significantly

Question: What about the “NE level in cerebral cortex” value [6, 11] of the same compound?
Answer: increased significantly

Question: And the “DA level in cerebral cortex” value ([6]; 0.5% RA diet 11 days vs controls, P = 0.068)?
Answer: somewhat increased

Question: What about the “monoamine concentration in striatum and hippocampus” value ([6]; RA diet 11 days, data not shown) of the same compound?
Answer: not significantly changed

Question: What about the “monoamine concentration in cerebral cortex, striatum and hippocampus” value ([6]; single intragastric dose 0.1 m mol/kgBW, 0, 60, 240 min, data not shown) of the same compound?
Answer: no significant differences

Question: What about the “Tgf-β1 gene expression in SN and VTA” value ([7]; RA diet 11 days) of the same compound?
Answer: significantly downregulated

Question: What about the “Tieg2 gene expression in SN and VTA” value ([7]; RA diet 11 days vs controls) of the same compound?
Answer: significantly decreased

Question: And the “Th mRNA level in cerebral cortex” value ([7]; RA diet 11 days, P = 0.13)?
Answer: somewhat increased

Question: What about the “mRNA levels of DA-metabolizing enzymes in cerebral cortex” value ([7]; RA diet 11 days, normalized to GAPDH) of the same compound?
Answer: no significant difference

Question: And the “Comt mRNA expression in SN” value [7, 12]?
Answer: significantly downregulated

Question: And the “Maob mRNA expression in SN” value [7, 12]?
Answer: significantly downregulated

Question: What about the “Maob mRNA expression in VTA” value [7, 12] of the same compound?
Answer: significantly downregulated

Question: What about the “side effects including nausea and vomiting” value [8] of the same compound?
Answer: not observed

Question: What about the intestinal permeability [1] of the same compound?
Answer: ~1%

Question: What about the “intestinal permeability, of intake volume” value ([1]; previous in vitro study) of the same compound?
Answer: < 1%

Question: What about the “Aβ aggregation in vitro” value (Aβ [2]) of the same compound?
Answer: significantly inhibited

Question: And the “Aβ deposition in the brain (immunohistochemistry)” value (Aβ [9]; RA diet for 10 months)?
Answer: significantly decreased

Question: And the “Aβ aggregation inhibitory activity in the brain, among five polyphenols” value (Aβ [9])?
Answer: highest

Question: Which brain serotonin concentration [10] does the source give for `O=c1c(O)c(-c2ccc(O)c(O)c2)oc2cc(O)cc(O)c12` [quercetin] here?
Answer: suppressed a decrease

Question: For `Cn1cnc2c1c(=O)[nH]c(=O)n2C` [theobromine], which “DA and NE concentrations in the striatum” value (striatum DA and NE) is on record?
Answer: significant increases
